Data published in patent US11102978B2, “Herbicide combination” (priority 2016, dated 2021).
Structures can show the parent of a compound that is named as a salt.

Key:
Format in all cases: in vivo
[1] = system: Rapistrum rugosum (weed code—RASRU); assay: Field trial, weed control of Rapistrum rugosum in wheat; settings: in Triticum aesti
Description: (§1) Studies were conducted to compare the weed controlling activity of the combination of bensulfuron methyl, metsulfuron methyl with herbicides selected from the classes of synthetic auxins, photosystem II inhibitors, very long chain fatty acid inhibitor, carotene biosynthesis inhibitor and compare its observed efficacy with the “expected” efficacy when bensulfuron methyl and metsulfuron methyl and select individual herbicides were used to treat both dicotyledonous and monocotyledonous weeds. Any difference between the observed and “expected” efficacy could be attributed to synergy between the two compounds in the control of […] weeds. The expected efficacy of a combination of bensulfuron methyl, metsulfuron methyl with herbicides selected from the classes of synthetic auxins, photosystem II inhibitors, very long chain fatty acid inhibitor, carotene biosynthesis inhibitor was calculated using the well-established Colby method.
(§2) In the Colby method, the expected (or predicted) response of a combination of herbicides is calculated by taking the product of the observed response for each individual component of the combination when applied alone divided by 100 and subtracting this value from the sum of the observed response for each component when applied alone. An unexpected enhancement in efficacy of the combination is then determined by comparing the observed response of the combination to the expected (or predicted) response as calculated from the observed response of each individual component alone. […]
(§3) The weed control activity of the individual herbicides of the invention and their combinations were evaluated on weeds such as Viola arvensis (weed code—VIOAR), Veronica persica (weed code—VERPE), Papaver rhoeas (weed code: PAPRH), Galium aparine (weed code—GALAP), Matricaria recutita weed code—MATCH), Veronica hederifolia (weed code—VERHE) and Viola arvensis (weed code—VIOAR.). […]

[2] = system: Papaver rhoeas (weed code—PAPRH); assay: Field trial, weed control of Papaver rhoeas in wheat; settings: in Triticum aesti, 12 DAA
Description: as §1
In the Colby method, the expected (or predicted) response of a combination of herbicides is calculated by taking the product of the observed response for each individual component of the combination when applied alone divided by 100 and subtracting this value from the sum of the observed response for each component when applied alone. An unexpected enhancement in efficacy of the combination is then determined by comparing the observed response of the combination to the expected (or predicted) response as calculated from the observed response of each individual component alone. If the observed response of the combination is greater than the expected (or predicted) response, or stated conversely, if the difference between the observed and expected response is greater than zero, then the combination is said to be synergistic or unexpectedly effective. (Colby, S. R., Weeds, 1967(15), p. 20-22) The Colby method requires only a single dose of each herbicide applied alone and the mixture of both doses. The formula used to calculate the expected efficacy (EE) which was compared with the observed efficacy (OE) to determine the efficacy of the present invention is explained hereinbelow: EE=(B efficacy+A efficacy−(B efficacy×A efficacy)/100)
The weed control activity of the individual herbicides of the invention and their combinations were evaluated on weeds such as Viola arvensis (weed code—VIOAR), Veronica persica (weed code—VERPE), Papaver rhoeas (weed code: PAPRH), Galium aparine (weed code—GALAP), Matricaria recutita weed code—MATCH), Veronica hederifolia (weed code—VERHE) and Viola arvensis (weed code—VIOAR.). The trial was carried out in Randomized Complete Block (RCB) method, all field trials were conducted using this method. Each trial were replicated four times and conducted under GEP guidelines. Application volumes were varied for each mixture. Such field trials were carried out at various locations so as to generate independent data, the locations were chosen randomly across European nations. Bensulfuron methyl and Metsulfuron methyl and selected herbicides were sprayed according to their recommended dosage.
Further field trials were carried out to test the synergy of the combination bensulfuron methyl, metsulfuron methyl and synthetic auxin fluroxypyr. The field trials were carried out at various locations in Europe during spring. […] The target weed was Papaver rhoeas (weed code—PAPRH) and the results are recorded in the table below:
Field trials were carried out test the synergy of the combination bensulfuron methyl, metsulfuron methyl, and synthetic auxin 2,4-D. The field trials were carried out at various locations in Europe during spring. […] The target weed were Senecio vulgaris (weed code—SENVU), Rapistrum rugosum (weed code—RASRU), Papaver rhoeas (weed code—PAPRH), Viola arvensis (Weed code—VIOAR), Roemeria hybrida (Weed code—is ROEHY), Galium aparine (Weed code—GALAP) and the results are recorded in the tables 3 and 4 below: […]

[3] = system: Senecio vulgaris (weed code—SENVU); assay: Field trial, weed control of Senecio vulgaris in wheat; settings: in Triticum aesti, 9 DAA; dose 0.1 Kg/ha (bensulfuron methyl + metsulfuron methyl), 2.6 l/ha (2,4D dimethylamine salt), 2.6 l/ha + 0.1 Kg/ha (mix)
Description: as §1
(§4) In the Colby method, the expected (or predicted) response of a combination of herbicides is calculated by taking the product of the observed response for each individual component of the combination when applied alone divided by 100 and subtracting this value from the sum of the observed response for each component when applied alone. […]

[4] = system: Roemeria hybrida (Weed code—is ROEHY); assay: Field trial, weed control of Roemeria hybrida in wheat; settings: in Triticum aesti, 15 DAA; dose 0.1 Kg/ha (bensulfuron methyl + metsulfuron methyl), 2.6 l/ha (2,4D dimethylamine salt), 0.1 Kg/ha + 2.6 l/ha (mix)
Description: as §1, §4

[5] = system: Viola arvensis (weed code—VIOAR); assay: Field trial, weed control of Viola arvensis in wheat; settings: in Triticum aesti
Description: as §1, §2, §3

[6] = system: Galium aparine (Weed code—GALAP); assay: Field trial, weed control of Galium aparine in wheat; settings: in Triticum aesti, 16 DAA, dose 0.08 g (bensulfuron methyl + metsulfuron methyl)
Description: (§5) In the Colby method, the expected (or predicted) response of a combination of herbicides is calculated by taking the product of the observed response for each individual component of the combination when applied alone divided by 100 and subtracting this value from the sum of the observed response for each component when applied alone. An unexpected enhancement in efficacy of the combination is then determined by comparing the observed response of the combination to the expected (or predicted) response as calculated from the observed response of each individual component alone. If the observed response of the combination is greater than the expected (or predicted) response, or stated conversely, if the difference between the observed and expected response is greater than zero, then the combination is said to be synergistic or unexpectedly effective.
(§6) The trial was carried out in Randomized Complete Block (RCB) method, all field trials were conducted using this method. Each trial were replicated four times and conducted under GEP guidelines. Application volumes were varied for each mixture.

[7] = system: weeds in general (TTTTT); assay: Field trial, control of weeds in general in wheat; settings: in Triticum aesti, dose 50 g + 4 g (bensulfuron methyl + metsulfuron methyl); for % Weed control TTTTT, Actual: 12 DAA
Description: as §5, §6

[8] = system: Veronica persica (weed code—VERPE); assay: Field trial, weed control of Veronica persica in wheat; settings: in Triticum aesti, dose 50 g + 4 g (bensulfuron methyl + metsulfuron methyl), 125 g (fluroxypyr), 50 g + 4 g + 125 g (mix)
Description: as §1, §4

[9] = Table 2, PAPRH, dose bensulfuron methyl 50 g, metsulfuron methyl 4 g, fluroxypyr 125 g, mix 50 g + 4 g + 125 g
[10] = Table 2, second PAPRH column pair, dose bensulfuron methyl 50 g, metsulfuron methyl 4 g, fluroxypyr 125 g, mix 50 g + 4 g + 125 g

Cc1cc(Cl)ccc1OCC(=O)O [MCPA dimethylamine salt, 4-chloro-2-methylphenoxy acetic acid]
% Weed control RASRU, Actual ([1]; Table 5, 12 DAA, dose 0.1 kg/ha A (bensulfuron methyl + metsulfuron methyl), 4 l/ha (MCPA dimethylamine salt), 0.1 kg/ha A + 4 l/ha (mix)): 34.8%
% Weed control RASRU, Actual ([1]; Table 5, 56 DAA, dose 0.1 kg/ha A (bensulfuron methyl + metsulfuron methyl), 4 l/ha (MCPA dimethylamine salt), 0.1 kg/ha A + 4 l/ha (mix)): 88.3%
% Weed control PAPRH, Actual ([2]; Table 5, dose 0.1 kg/ha A (bensulfuron methyl + metsulfuron methyl), 4 l/ha (MCPA dimethylamine salt), 0.1 kg/ha A + 4 l/ha (mix)): 63.8%

O=C(O)COc1ccc(Cl)cc1Cl [2,4D dimethylamine salt, 2,4-Dichlorophenoxy acetic acid]
% Weed control RASRU, Actual ([1]; Table 3, 12 DAA, dose 0.1 Kg/ha (bensulfuron methyl + metsulfuron methyl), 2.6 l/ha (2,4D dimethylamine salt), 2.6 l/ha + 0.1 Kg/ha (mix)): 32.4%
% Weed control SENVU, Actual [3]: 62.5%
% Weed control ROEHY, Actual [4]: 37.5%
% Weed control VIOAR, Actual ([5]; Table 4, 12 DAA, dose 0.1 Kg/ha (bensulfuron methyl + metsulfuron methyl), 2.6 l/ha (2,4D dimethylamine salt), 0.1 Kg/ha + 2.6 l/ha (mix)): 18.8%
% Weed control PAPRH, Actual ([2]; Table 3, dose 0.1 Kg/ha (bensulfuron methyl + metsulfuron methyl), 2.6 l/ha (2,4D dimethylamine salt), 2.6 l/ha + 0.1 Kg/ha (mix)): 37.5%

O=C(Nc1ccc(F)cc1F)c1cccnc1Oc1cccc(C(F)(F)F)c1 [Diflufenican, 2′,4′-difluoro-2-(α,α,α-trifluoro-m-tolyloxy)nicotinanilide]
% Weed control GALAP, Actual ([6]; Table 7, first column pair, 0.05 g (diflufenican), 0.08 g + 0.05 g (mix)): 13%
% Weed control GALAP, Actual ([6]; Table 7, second column pair, 0.08 g (diflufenican), 0.08 g + 0.08 g (mix)): 20%
% Weed control TTTTT, Actual ([7]; Table 6, first column pair, 0.12 g (diflufenican), 50 g + 4 g + 0.12 g (mix)): 11.7%
% Weed control TTTTT, Actual ([7]; Table 6, second column pair, 0.16 g (diflufenican), 50 g + 4 g + 0.16 g (mix)): 3.0%
% Weed control TTTT, Actual ([7]; Table 6, third column pair, 12 DAA T, 0.16 g (diflufenican), 50 g + 4 g + 0.16 g (mix)): 15%

COC(=O)c1ccccc1S(=O)(=O)NC(=O)Nc1nc(C)nc(OC)n1 [Metsulfuron methyl, methyl 2-(4-methoxy-6-methyl-1,3,5-triazin-2-ylcarbamoylsulfamoyl)benzoate]
% Weed control PAPRH, Actual [2, 9]: 48%
% Weed control PAPRH, Actual [2, 10]: 48.8%

COC(=O)c1ccccc1CS(=O)(=O)NC(=O)Nc1nc(OC)cc(OC)n1 [Bensulfuron methyl, methyl α-[(4,6-dimethoxypyrimidin-2-ylcarbamoyl)sulfamoyl]-o-toluate]
% Weed control PAPRH, Actual [2, 9]: 50%
% Weed control PAPRH, Actual [2, 10]: 50%

Nc1c(Cl)c(F)nc(OCC(=O)O)c1Cl [Fluroxypyr, 4-amino-3,5-dichloro-6-fluoro-2-pyridyloxyacetic acid]
% Weed control VIOAR, Actual ([5]; 20 DAA, dose 50 g + 4 g (bensulfuron methyl + metsulfuron methyl), 125 g (fluroxypyr), 50 g + 4 g + 125 g (mix)): 31%
% Weed control VIOAR, Actual ([5]; 57 DAA, dose 50 g + 4 g (bensulfuron methyl + metsulfuron methyl), 125 g (fluroxypyr), 50 g + 4 g + 125 g (mix)): 28%
% Weed control VERPE, Actual ([8]; 20 DAA): 51%
% Weed control VERPE, Actual ([8]; 57 DAA): 55%
% Weed control PAPRH, Actual [2, 9]: 28%
% Weed control PAPRH, Actual [2, 10]: 79%
